One experiment has as its target T1, CB1-Receptor (Homo sapiens, UniProt P21554).
T1 construct: purchased Receptor Biology, Inc
Briefly: In-vitro determination of affinity to CB1 receptor (radioligand binding). The conditions noted are these: Radiologand:[^3H]-CP55940, transfected human CB1 receptors. The procedure: I. In-vitro determination of affinity to CB1/CB2-Receptors
The in-vitro determination of the affinity of the inventive quaternary ammonium salts of substituted pyrazoline compounds to CB1/CB2-Rezeptors is carried out as described in the publication of Ruth A. Ross, Heather C. Brockie et al., "Agonist-inverse agonist characterization at CB1 and CB2 cannabinoid receptors of L-759633, L759656 and AM630", British Journal of Pharmacology, 126, 665-672, (1999), whereby the transfected human CB1 and CB2 receptors of Receptor Biology, Inc. are used. The radioligand used for both receptors is [3H]-CP55940. The respective parts of the description are hereby incorporated by reference and forms part of the present disclosure.
The affinity of the inventive substituted pyrazoline compounds to CB1/CB2 receptors was determined as described above.

A further experiment has as its system cannabinoid receptors. Briefly: Mouse tetrad model, antagonistic activity against Win 55212-2. It counts as in vivo. Particulars: Male NMRI mice; substance injected intravenously 5 minutes before intravenous 1.25 mg/kg Win-55,212; tetrad parameter not specified. The source says: II. In-vivo bioassay system for determination of cannabinoid activity
Substances with affinity for cannabinoid receptors are known to produce a wide range of pharmacological effects. It is also known that intravenous administration of a substance with affinity for cannabinoid receptors in mice produces analgesia , hypothermia, sedation and catalepsy. Individually, none of these effects can be considered as proof that a tested substance has affinity for cannabinoid-receptors, since all of these effects are common for various classes of centrally active agents. However, substances, which show all of these effects, i.e. substances that are active in this so-called tetrad model are considered to have affinity for the cannabinoid receptors. It has further been shown that cannabinoid receptor antagonists are higly effective in blocking the effects of a cannabinoid agonist in the mouse tetrad model.
The tetrad model is described, for example, in the publication of A. C. Howlett et al, International Union of Pharmacology XXVII. […]
Before testing in the behavioral procedures given below, mice are acclimatized to the experimental setting. Pre-Treatment control values are determined for analgesia hot plate latency (in seconds), rectal temperature, sedation and catalepsy.
In order to determine the agonistic activty of the substance to be tested, the mice are injected intravenously with the substance to be tested or the vehicle alone. 15 minutes after injection, latency in hot plate analgesia is measured. Rectal temperature, sedation and catalepsy are measured 20 minutes after injection.
In order to determine the antagonistic activity the identical procedure is used as for the determination of the agonistic effects, but with the difference that the substance to be evaluated for its antagonistic activity is injectected 5 minutes before the intravenous injection of 1.25 mg/kg Win-55,212 a known cannabinoid-receptor agonist. […]
The degree of analgesia is calculated from the formula: %MPE of Analgesia = (PT-B)/(PC-B) × 100 [formula] […]

The results in this text go back to patent EP1849775A1, “Cycloalkane-substituted pyrazoline compounds, their preparation and use as medicaments” (LABORATORIOS DEL DR. ESTEVE, S.A., priority 2006, dated 2007).

One may read the IC50 as the concentration at which inhibition is half-maximal. Low readings indicate greater potency, high ones weaker potency.

T1 sequence (P21554 whole entry): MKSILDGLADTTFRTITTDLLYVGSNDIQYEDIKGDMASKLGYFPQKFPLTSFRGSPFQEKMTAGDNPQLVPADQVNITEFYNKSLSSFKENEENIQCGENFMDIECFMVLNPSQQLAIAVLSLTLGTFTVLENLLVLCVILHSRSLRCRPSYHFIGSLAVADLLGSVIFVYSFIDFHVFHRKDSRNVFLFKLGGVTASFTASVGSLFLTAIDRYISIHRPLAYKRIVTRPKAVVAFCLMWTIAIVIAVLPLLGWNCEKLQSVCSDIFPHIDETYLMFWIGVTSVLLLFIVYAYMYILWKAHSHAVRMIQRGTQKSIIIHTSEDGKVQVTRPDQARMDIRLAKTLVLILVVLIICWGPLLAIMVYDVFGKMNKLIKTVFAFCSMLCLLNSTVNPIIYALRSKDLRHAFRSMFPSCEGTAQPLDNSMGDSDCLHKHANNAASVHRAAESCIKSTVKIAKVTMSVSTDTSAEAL

Compound `O=C(NC1CCCCCC1)C1=NN(c2ccc(Cl)cc2Cl)[C@@H](c2ccc(Cl)cc2)C1` [Example 2, (R)-5-(4-chlorophenyl)-N-cycloheptyl-1-(2,4-dichlorophenyl)-4,5-dihydro-1H-pyrazole-3-carboxamide] displayed an IC50 at CB1-Receptor of 15.8 nM. Besides, in the experiment with cannabinoid receptors, the “Antagonistic Effect in (%)” value is 94%.

`O=C(NC1CCCCCCC1)C1=NN(c2ccc(Cl)cc2Cl)C(c2ccc(Cl)cc2)C1` (stereo not drawn) [Example 5, 5-(4-chlorophenyl)-N-cyclooctyl-1-(2,4-dichlorophenyl)-4,5-dihydro-1H-pyrazole-3-carboxamide]: the IC50 on CB1-Receptor came out at 56.2 nM. Besides, the “Antagonistic Effect in (%)” value in the experiment on cannabinoid receptors is on record as 62±5%.

Consider `O=C(NC1CCCCCC1)C1=NN(c2ccc(Cl)cc2Cl)C(c2ccc(Cl)cc2)C1` (stereo not drawn) [Example 1, 5-(4-chlorophenyl)-N-cycloheptyl-1-(2,4-dichlorophenyl)-4,5-dihydro-1H-pyrazole-3-carboxamide], for which the IC50 on CB1-Receptor was determined as 100 nM. In addition, the “Antagonistic Effect in (%)” value with cannabinoid receptors was determined as 84%.
